Assay results as given in patent publication US20260297542A1, “HERBICIDE RESISTANT PLANTS” (SYNGENTA CROP PROTECTION AG, priority 2023, published 2026).
Changes are numbered by the printed parent chain. Where two headings read alike, the source gives them in different places.

Columns and labels:
[1] = target: T1, His-TEV-AtPP01 ΔcTP (SEQ ID NO: 370) (Arabidopsis thaliana, UniProt P55826); test: PPO fluorescence IC50 assay, partially purified enzyme; type: biochemical
T1 construct: with cTPs removed; made in house; host or cells: E. coli BL21 (DE3), His GraviTrap, partially purified
T1 sequence (P55826 with tags, fused parts or gaps): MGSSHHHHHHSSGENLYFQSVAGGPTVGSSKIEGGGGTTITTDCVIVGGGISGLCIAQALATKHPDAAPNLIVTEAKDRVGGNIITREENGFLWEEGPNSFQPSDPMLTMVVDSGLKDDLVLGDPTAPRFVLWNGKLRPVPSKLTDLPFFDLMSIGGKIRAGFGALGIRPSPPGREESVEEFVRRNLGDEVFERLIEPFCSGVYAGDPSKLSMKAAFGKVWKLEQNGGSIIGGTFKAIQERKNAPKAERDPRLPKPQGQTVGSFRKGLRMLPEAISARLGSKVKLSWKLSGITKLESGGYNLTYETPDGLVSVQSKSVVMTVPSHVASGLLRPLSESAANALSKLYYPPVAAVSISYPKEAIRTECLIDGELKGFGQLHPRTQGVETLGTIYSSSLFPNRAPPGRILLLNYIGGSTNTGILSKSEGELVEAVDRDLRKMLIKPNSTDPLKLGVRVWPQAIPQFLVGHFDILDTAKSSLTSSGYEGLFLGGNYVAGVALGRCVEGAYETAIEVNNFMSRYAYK
Description: (§1) A pET24 plasmid containing a DNA sequence encoding variants of AtPPO1 derived from Arabidopsis thaliana with cTPs removed and both a 6×His tag and TEV protease cleavage tag added at the N-terminus, codon-optimised for expression in E. coli, and under control of a T7 promoter, was synthesised by Twist Bioscience. The following variants were synthesised: WT AtPPO1 (SEQ ID NO: 370), AtPPO1 L479M (SEQ ID NO: 371), AtPPO1 L479N (SEQ ID NO: 372), AtPPO1 S305L Y426V (SEQ ID NO: 374) and AtPPO1 S305L Y426V L479M (SEQ ID NO: 373). This plasmid was expressed in E. coli BL21 (DE3) with 50 μg/mL kanamycin selection. 10 mL of overnight cultures grown at 37° C. were used to inoculate 1 L AIM (AIM-Terrific Broth Base including Trace elements, Formedium) in 2 L shake flasks. Cultures were grown at 37° C., 200 rpm for 3 hours and then overnight at 26° C. Cells were harvested centrifugation. 5-15 g of cell pellet was lysed in and resuspended in ratio of 1:1.5 in lysis buffer (20 mM Tris pH8, 500 mM sodium chloride, 10% glycerol, 1× complete Protease EDTA-free Inhibitor Tablet (Roche), 10 mM imidazole). The resuspension was sonicated at 75% using 10 cycles of 30 seconds, 40 seconds off. After sonication Triton X-100 was added to the lysates at a final concentration of 0.5%. The lysates were centrifuged at 20,000 rpm for 25 min at 4° C. Cleared lysates were loaded on His GraviTrap (Cytiva) columns, washed with 20 mL of lysis buffer and eluted in elution buffer (20 mM Tris pH8, 500 mM sodium chloride, 10% glycerol, 200 mM imidazole, 0.03% (v/v) Triton X-100). The eluate was desalted on a PD10 column and 2.5-3.2 mL was collected. Protein concentration was measured and calculated using the absorbance at 280 nm. Extracts were diluted 1 in 4 and 10 uL was analysed by SDS PAGE.
(§2) Partially purified Protoporphyrinogen Oxidase enzymes were assayed for activity using fluorescence adapted from the method of Shepherd & Dailey (Anal Biochem. 2005 344(1) 115-121). The assay was performed in black 384 well plates with a clear bottom and the total volume of the reaction mixture was 91 ul. The final assay mixture contained 100 mM K2HPO4 pH7.2, 1 mM Na2EDTA, 5 mM DTT, 20% glycerol (v/v), 0.05% Tween 20 (v/v), 1.1% DMSO (v/v), 1 uM protoporphyrinogen IX and 1.5 nM enzyme. Compounds were dissolved in DMSO at 1 mM and a 4-fold serial dilution carried out to give 8 rates. 1 ul was added to the assay mixture. This gave final compound concentrations of 11, 2.7, 0.69, 0.17, 0.04, 0.01, 0.002, 0.0007 uM. Enzyme and inhibitor were preincubated for 5 minutes prior to starting the reaction with the addition of the substrate. […] IC50s were calculated using GraphPad Prism 7.05 nonlinear regression (Table 6). Each compound was tested in duplicate.

[2] = target: T2, His-TEV-AtPP01 ΔcTP L479N (SEQ ID NO: 372) (Arabidopsis thaliana, UniProt P55826, L479N); test: as above; type: biochemical
T2 construct: with cTPs removed; made in house; host or cells: E. coli BL21 (DE3), His GraviTrap, partially purified
T2 sequence (P55826 with tags, fused parts or gaps L479N): T1 sequence (P55826 with tags, fused parts or gaps) with L464N
Description: as §1, §2

[3] = role: inhibitor, 1 uM protoporphyrinogen IX, <1.0 is below detection limit of assay

Row | SMILES | IC50 [1] [nM] | IC50 [2] [nM] | IC50 [1, 3] [nM] | IC50 [2, 3] [nM]
1 | C#CCOc1cc(-n2nc3n(c2=O)CCCC3)c(Cl)cc1Cl [Azafenadin] | 0.8 | 0.8 | – | –
2 | C=CCOC(=O)C(C)(C)OC(=O)c1cc(-n2c(=O)cc(C(F)(F)F)n(C)c2=O)ccc1Cl [Butafenacil, butafenacil] | 0.6 | 0.9 | – | –
3 | COC(=O)C(C)ON=Cc1cc(-n2c(=O)cc(C(F)(F)F)n(C)c2=O)c(F)cc1Cl (stereo not shown) [Flufenoximacil, flufenoximacil] | – | – | 0.6 | 0.8
4 | C#CCN1C(=O)COc2cc(F)c(N3C(=O)C4=C(CCCC4)C3=O)cc21 [Flumioxazin, flumioxazin] | 0.8 | 1 | – | –
5 | CS(=O)(=O)NC(=O)c1cc(Oc2ccc(C(F)(F)F)cc2Cl)ccc1[N+](=O)[O-] [Fomesafen, fomesafen] | 1.8 | 1.4 | – | –
6 | CCOC(=O)COc1ncccc1Oc1cc(-n2c(=O)cc(C(F)(F)F)n(C)c2=O)c(F)cc1Cl [Herbicide A, epyrifenacil] | 0.7 | 0.9 | – | –
7 | C#CCN1C(=O)C(F)(F)Oc2cc(F)c(-n3c(=O)n(C)c(=S)n(C)c3=O)cc21 [Herbicide B, trifludimoxazin] | 0.7 | 1 | – | –
8 | CCOC(=O)C1(C)CC(c2cc(-n3c(=O)cc(C(F)(F)F)n(C)c3=O)c(F)cc2Cl)=NO1 (stereo not shown) [Herbicide C, 3-(2-chloro-4-fluoro-5-(3-methyl-2,6-dioxo-4-trifluoromethyl-3,6-dihydropyrimidin-1(2H)-yl)phenyl)-5-methyl-4,5-dihydroisoxazole-5-carboxylic acid ethyl ester] | 0.7 | 0.9 | – | –
9 | CCOC(=O)[C@]1(C)CC(c2cc(-n3c(=O)n(C)c(=S)n(C)c3=O)c(F)cc2Cl)=NO1 [Herbicide D, ethyl (5S)-3-[2-chloro-5-(3,5-dimethyl-2,6-dioxo-4-thioxo-1,3,5-triazinan-1-yl)-4-fluoro-phenyl]-5-methyl-4H-isoxazole-5-carboxylate] | – | 0.8 | – | –
10 | CC(C)N(C)S(=O)(=O)NC(=O)c1cc(-n2c(=O)cc(C(F)(F)F)n(C)c2=O)c(F)cc1Cl [Herbicide E, saflufenacil] | 2.1 | 2.6 | – | –
11 | CC(C)Oc1cc(-n2nc(C(C)(C)C)oc2=O)c(Cl)cc1Cl [Oxadiazaon] | 19 | 6.1 | – | –
12 | C#CCN(C)c1c(C#N)cnn1-c1nn2c(c1Cl)CCCC2 [Pyraclonil] | 2.5 | 1.5 | – | –
13 | CCOC(=O)COc1cc(-c2nn(C)c(OC(F)F)c2Cl)c(F)cc1Cl [Pyraflufen-ethyl, pyraflufen-ethyl] | 0.6 | 0.8 | – | –
